Assay results as given in PMC11821258 (Molecules, 2025).
Where two headings read alike, the source gives them in different places.

Key:
Assay type in all cases: cell-based
[1] = test system: human biphenotypic B myelomonocytic leukemia MV4-11; experiment: Antiproliferative activity, MTT assay, 72 h; conditions: for IC50: Homo sapiens, MV4-11, 72 h; for SI: IC50 MCF-10A / IC50 MV4-11
Method: (§1) The tested compounds were dissolved in DMSO (dimethyl sulfoxide) to a concentration of 10 mg/mL and then were diluted in the culture medium to reach the final concentrations. The cells were plated in 384-well plates at a density of 1 × 10^3 or 2 × 10^3 (MCF-10A) cells per well (Greiner Bio One, Kremsmünster, Austria) and in 96-well plates (MV4-11 cell; Sarstedt, Nümbrecht, Germany) at a density of 5 × 10^3 cells per well. After 24 h of incubation, the tested compounds were added at concentrations in the range of 100–0.03 µg/mL and, after the next 72 h of exposure to tested agents, the cytotoxic effect of all agents was examined using the MTT (MV4-11) or SRB assay, described previously. The values of IC50 (inhibitory concentration 50%) were calculated separately for each experiment (repeated 3–5 times) using the Prolab-3 system which is based on Cheburator 0.4 software. Doxorubicin was applied as a reference drug. The IC50 values in µg/mL were calculated to µM.
This assay was used against MV4-11 leukemia cells and was performed after 72 h of exposure of the tested agents to the cells. For each well, 20 µL of the MTT [3-(4,5-dimethylthiazol-2-yl)-2,5-diphenyl tetrazolium bromide] solution (5 mg/mL, Merck, Darmstadt, Germany) was added. After the incubation time (4 h at 37 °C), 80 µL of the lysing buffer was added to each well (mixture of 225 mL of DMF (dimethylformamide) Avantor, Poland; 67.5 g of SDS, Merck, Darmstadt, Germany; and 275 mL of distilled water). After the next 24 h, the absorbance of the samples was measured at a 570 nm wavelength on a Synergy H4 photometer (BioTek Instruments, Winooski, VT, USA). The absorbance of wells without the cells was the background.

[2] = test system: human breast cancer MCF-7; experiment: Antiproliferative activity, SRB assay, 72 h; conditions: for IC50: Homo sapiens; for SI: IC50 MCF-10A / IC50 MCF-7
Method: as §1
(§2) The cytotoxicity assay was performed after the cultured cells were exposed to the tested agents for 72 h using the authomatic Washer dyspenser EL406, BioTek. At the first step, the washer dispenser collected 40 µL of cultured medium from each wells, and then the cells were fixed by gently layering 20 µL per well of cold 25% trichloroacetic acid to each well. The incubation time was 40 min and then the plates were washed with tap water. The cells were stained with 20 µL per well of 0.1% sulforhodamine B (SRB, Merck, Darmstadt, Germany) for 30 min. Unbound sulforhodamine B was removed by washing it with 1% acetic acid. The protein-bound dye was extracted in 30 min using 70 µL per well of 10 mM unbuffered Tris base (Merck, Darmstadt, Germany). The absorbance (at 540 nm) was measured on a Synergy H4 photometer (BioTek Instruments, Winooski, VT, USA). The absorbance of the wells without the cells was the background.

[3] = test system: human colon cancer HCT116 cells; experiment: Antiproliferative activity, SRB assay, 72 h; conditions: for SI: IC50 MCF-10A / IC50 HCT116
Method: as §1, §2

[4] = test system: human lung carcinoma A549; experiment: Antiproliferative activity, SRB assay, 72 h; conditions: for IC50: A549, 72 h; for SI: IC50 MCF-10A / IC50 A549
Method: as §1, §2

[5] = test system: human prostate adenocarcinoma PC-3; experiment: Antiproliferative activity, SRB assay, 72 h; conditions: for IC50: Homo sapiens; for SI: IC50 MCF-10A / IC50 PC-3
Method: as §1, §2

[6] = test system: human normal epithelial cells from the mammary gland (MCF-10A); experiment: Cytotoxicity on non-tumorigenic cells, SRB assay, 72 h
Method: as §1, §2

[7] = test system: human melanoma Hs294T cells; experiment: Antiproliferative activity, SRB assay, 72 h; conditions: for IC50: 72 h; for SI: IC50 MCF-10A / IC50 Hs249T (so in the source)
Method: as §1, §2

[8] = test system: human pancreas cancer MiaPaca-2 cells; experiment: Antiproliferative activity, SRB assay, 72 h; conditions: for SI: IC50 MCF-10A / IC50 MiaPaca-1 (so in the source)
Method: as §1, §2

[9] = MCF7, MCF-7, 72 h, SRB, read-out: IC50
[10] = Homo sapiens, HCT-116, HCT116, 72 h, SRB, read-out: IC50
[11] = Homo sapiens, SRB, read-out: IC50
[12] = PC-3, 72 h, SRB, read-out: IC50
[13] = Homo sapiens, MCF-10A normal cells, SRB, read-out: IC50
[14] = Homo sapiens, Hs 294T, Hs249T (so in the source), SRB, read-out: IC50
[15] = Homo sapiens, MIA PaCa-2, MiaPaca-1 (so in the source), 72 h, SRB, read-out: IC50

| Compound | IC50 ([1]; MTT, read-out: IC50) [µM] | SI [1] | IC50 [2, 9] [µM] | SI [2] | IC50 [3, 10] [µM] | SI [3] | IC50 [4, 11] [µM] | SI [4] | IC50 [5, 12] [µM] | SI [5] | IC50 [6, 13] [µM] | IC50 [7, 14] [µM] | SI [7] | IC50 [8, 15] [µM] | SI [8] | other results |
| --- | --- | --- | --- | --- | --- | --- | --- | --- | --- | --- | --- | --- | --- | --- | --- | --- |
| C#CC(=O)OC[C@]12CC[C@@H](C(=C)C)C1C1CCC3[C@@]4(C)CC[C@H](OC(=O)CC(C)(C)C(=O)O)C(C)(C)C4CC[C@@]3(C)[C@]1(C)CC2 (stereo partly shown) [Compound 5a] | 0.6 ± 0.175 | 21.17 | 19.4 ± 3.1 | 0.65 | 3.64 ± 0.6 | 3.49 | 10.7 ± 3 | 1.18 | 0.85 ± 0.17 | 14.94 | 12.7 ± 0.5 |  |  |  |  |  |
| C=C(C)[C@@H]1CC[C@]2(COC(C)=O)CC[C@]3(C)[C@H](CC[C@@H]4[C@@]5(C)CC[C@H](O)C(C)(C)[C@@H]5CC[C@]43C)[C@@H]12 [A, 28-O-acetylbetulin, reference compound] | 41.1 ± 8.46 | 3.02 | 72.4 ± 6.6 | 1.71 | 40.6 ± 13.6 | 3.05 | 27.8 ± 10.5 | 4.45 | 80.7 ± 13.4 | 1.54 | 124 ± 33 | 128 ± 14.2 | 0.97 | 127 ± 16.3 | 0.98 |  |
| C=C(C)[C@@H]1CC[C@]2(COC(=O)C#Cc3ccccc3)CC[C@]3(C)C(CCC4[C@@]5(C)CC[C@H](OC(=O)CC(C)(C)CC(=O)O)C(C)(C)C5CC[C@]43C)C12 (stereo partly shown) [Compound 4f] |  |  |  |  |  |  |  |  |  |  |  |  |  |  |  | IC50 [1]: 46.6 ± 11.8 µM; IC50 ([2]; MCF7, 72 h): 131 ± 8.83 µM; IC50 ([3]; HCT116, 72 h, SRB): does not show activity and Neg; IC50 ([4]; SRB): does not show activity and Neg; IC50 ([7]; Hs249T (so in the source), SRB): Neg; IC50 ([8]; MiaPaca-1 (so in the source), 72 h, SRB): Neg; IC50 ([5]; 72 h): 95.8 ± 27.1 µM; IC50 ([6]; MCF-10A normal cells, SRB): Neg |
| C=C(C)[C@@H]1CC[C@]2(CO)CC[C@]3(C)C(CCC4[C@@]5(C)CC[C@H](OC(=O)CC(C)(C)C(=O)O)C(C)(C)C5CC[C@]43C)C12 (stereo partly shown) [Compound 5] | 7.81 ± 2.8 | 3.43 | 29.2 ± 3.85 | 0.92 | 14.7 ± 4.55 | 1.82 | 9.11 ± 0.87 | 2.94 | 27 ± 3.85 | 1.01 | 26.8 ± 2.1 | 30.8 ± 1.4 | 0.87 | 30.7 ± 2.63 | 0.87 |  |
| C=C(C)[C@@H]1CC[C@]2(COC(=O)C#CC)CC[C@]3(C)C(CCC4[C@@]5(C)CC[C@H](OC(=O)CC(C)(C)CC(=O)O)C(C)(C)C5CC[C@]43C)C12 (stereo partly shown) [Compound 4c] | 3.23 ± 1.38 | 10.10 | 16.6 ± 2.15 | 1.96 | 8.45 ± 2.15 | 3.85 | 7.37 ± 2.3 | 4.42 | 10.1 ± 2.46 | 3.21 | 32.6 ± 2.15 | 9.68 ± 1.54 | 3.37 | 22.7 ± 5.53 | 1.43 |  |
| C=C(C)[C@@H]1CC[C@]2(COC(=O)C#CC3CC3)CC[C@]3(C)C(CCC4[C@@]5(C)CC[C@H](OC(=O)CC(C)(C)CC(=O)O)C(C)(C)C5CC[C@]43C)C12 (stereo partly shown) [Compound 4e] | 3.16 ± 0.88 | 21.50 | 25.7 ± 4.43 | 2.60 | 23.2 ± 5.91 | 2.93 | 59.8 ± 22.2 | 1.14 | 15.2 ± 5.91 | 4.47 | 68 ± 34.9 | 19.8 ± 5.61 | 3.40 | 67.1 ± 14.5 | 1.01 |  |
| C=C(C)[C@@H]1CC[C@]2(COC(=O)C#CC)CC[C@]3(C)C(CCC4[C@@]5(C)CC[C@H](OC(=O)CC(C)(C)C(=O)O)C(C)(C)C5CC[C@]43C)C12 (stereo partly shown) [Compound 5c] | 11 ± 1.1 | 2.91 | 25 ± 4.87 | 1.28 | 9.26 ± 0.47 | 3.46 | 6.59 ± 1.88 | 4.86 | 22.9 ± 4.71 | 1.40 | 32 ± 4.87 | 23.2 ± 3.77 | 1.38 | 32 ± 6.12 | 1.00 |  |
| C=C(C)[C@@H]1CC[C@]2(COC(=O)CC)CC[C@]3(C)C(CCC4[C@@]5(C)CC[C@H](OC(=O)CC(C)(C)CC(=O)O)C(C)(C)C5CC[C@]43C)C12 (stereo partly shown) [Compound 4d] | 5.15 ± 0.47 | 11.73 | 20.6 ± 5.77 | 2.93 | 16.9 ± 5.61 | 3.58 | 6.24 ± 1.25 | 9.68 | 21.7 ± 4.52 | 2.78 | 60.4 ± 15.9 | 18.7 ± 9.67 | 3.23 | 34.2 ± 2.96 | 1.77 |  |
| C=C(C)[C@@H]1CC[C@]2(COC(C)=O)CC[C@]3(C)C(CCC4[C@@]5(C)CC[C@H](OC(=O)CCC(=O)O)C(C)(C)C5CC[C@]43C)C12 (stereo partly shown) [Compound 3] |  | 8.82 |  | 1.94 |  | 2.55 |  | 6.53 |  | 1.50 |  |  | 1.53 |  | 0.97 | IC50 [1]: 3.93 ± 1.54 µM; IC50 ([2]; MCF7, 72 h): 17.3 ± 6.33 µM; IC50 ([3]; Homo sapiens, HCT-116, 72 h): 13.2 ± 1.02 µM; IC50 ([4]; Homo sapiens): 5.13 ± 0.85 µM; IC50 ([7]; Homo sapiens, Hs 294T): 21.9 ± 4.27 µM; IC50 ([8]; Homo sapiens, MIA PaCa-2, 72 h): 34.5 ± 5.47 µM; IC50 ([5]; 72 h): 22.4 ± 2.56 µM; IC50 ([6]; Homo sapiens, MCF-10A): 33.5 ± 1.88 µM |
| C=C(C)[C@@H]1CC[C@]2(COC(C)=O)CC[C@]3(C)C(CCC4[C@@]5(C)CC[C@H](OC(=O)CC(C)(C)CC(=O)O)C(C)(C)C5CC[C@]43C)C12 (stereo partly shown) [Compound 1] | 2.9 ± 0.26 | 11.44 | 7.02 ± 2.39 | 4.73 | 6.38 ± 2.87 | 5.20 | 4.94 ± 0.48 | 6.71 | 14 ± 7.02 | 2.36 | 33.2 ± 1.91 | 11.6 ± 1.12 | 2.85 | 23.6 ± 3.83 | 1.41 |  |
| C#CCCC(=O)OC[C@]12CC[C@@H](C(=C)C)C1C1CCC3[C@@]4(C)CC[C@H](OC(=O)CCC(=O)O)C(C)(C)C4CC[C@@]3(C)[C@]1(C)CC2 (stereo partly shown) [Compound 6b] | 3.53 ± 0.64 | 8.68 | 11.4 ± 4.17 | 2.69 | 9.95 ± 0.64 | 3.08 | 3.21 ± 0.64 | 9.55 | 13.2 ± 2.57 | 2.33 | 30.7 ± 3.69 | 17.5 ± 6.26 | 1.75 | 27.4 ± 2.57 | 1.12 |  |
| C=C(C)[C@@H]1CC[C@]2(COC(C)=O)CC[C@]3(C)C(CCC4[C@@]5(C)CC[C@H](OC(=O)CC(C)(C)C(=O)O)C(C)(C)C5CC[C@]43C)C12 (stereo partly shown) [Compound 2, 28-acetyl-3-(3′,3′-dimethylsuccinyl)betulin] |  | 7.70 |  | 2.04 |  | 3.10 |  | 7.43 |  | 1.69 |  |  | 1.23 |  | 1.20 | IC50 [1]: 4.4 ± 1.63 µM; IC50 ([2]; MCF7, 72 h): 16.6 ± 7.67 µM; IC50 ([3]; Homo sapiens, HCT-116, 72 h): 10.9 ± 2.94 µM; IC50 ([4]; Homo sapiens): 4.57 ± 1.79 µM; IC50 ([7]; Homo sapiens, Hs 294T): 27.6 ± 0.65 µM; IC50 ([8]; Homo sapiens, MIA PaCa-2, 72 h): 28.2 ± 4.4 µM; IC50 ([5]; 72 h): 20.1 ± 2.12 µM; IC50 ([6]; Homo sapiens, MCF-10A): 33.9 ± 4.24 µM |
